Columns and labels:
PC-3 = test: CellTiter-Glo cell viability, PC-3; assay type: cell-based
Description: (§1) The 50% inhibitory concentration (IC50) was determined in the cancer cell lines using CellTiter-Glo luminescent cell viability assay after incubation with different concentrations of active agents. Each cell line was treated with active Zn(II) agent, a standard chemotherapy drug as reference control, and culture medium as vehicle control. Cell Lines. All cell lines were cultured in media supplemented with 10-15% FBS, at a temperature of 37° C., 5% CO2, and 95% humidity. The reference control drug for all cell lines was cisplatin, to be used for genomic analysis. The cell lines tested, the tissue of origin are shown below in Table 1: Procedure for Determining Half Maximal Inhibition Concentration IC50 • 1. Harvested cells during the logarithmic growth period and count cell number using Count-star. • 2. Adjusted cell concentrations to 4.44×10^4 cells/mL with respective culture medium. • 3. Added 90 μL cell suspensions to two 96-well plates (plates A and B) with the final cell density of 4×10^3 cells/well. (cell concentration was adjusted according to the data base or density optimization assay.) • 4a. Next day: For the plates of TO reading: • 1) Added 10 μL culture medium to each well of plate A for TO reading. • 2) Equilibrated the plate and its content at RT for approximately 30 min. • 3) Added 50 μL CellTiter-Glo reagent to each well. • 4) Mixed content for 5 min on an orbital shaker to induce cell lysis. • 5) Allowed the plate to incubate at RT for 20 min to stabilize luminescent signal. • 6) Recorded luminescence (TO) using EnVision Multi Label Reader. • 4b. For the plates of test reading: • 1) Prepared 10× solution of Zn(II) agent test article. […] The formula for calculating surviving rate is shown below and the absolute IC50 (EC50) was calculated according to the dose-response curve generated by GraphPad Prism 5.0. • 12) The surviving rate (%)=(LumTest article−LumMedium control)/(LumNon-treated−LumMedium control)×100%.

HL-60 = test: CellTiter-Glo cell viability, HL-60; assay type: cell-based
Description: as §1

MV-4-11 = test: CellTiter-Glo cell viability, MV-4-11; assay type: cell-based
Description: as §1

MOLP8 = test: CellTiter-Glo cell viability, MOLP8; assay type: cell-based
Description: as §1

SU-DHL-6 = test: CellTiter-Glo cell viability, SU-DHL-6; assay type: cell-based
Description: as §1

JJN-3 = test: CellTiter-Glo cell viability, JJN-3; assay type: cell-based
Description: as §1

MOLM-13 = test: CellTiter-Glo cell viability, MOLM-13; assay type: cell-based
Description: as §1

Hep3B = test: CellTiter-Glo cell viability, Hep3B; assay type: cell-based
Description: as §1

50 cancer cell lines = test: Genetic instability mutation analysis of 50 cell line IC50 distribution
Description: Following the 50 cell line screening tests (OmniScreen™) described in Example 6, each cell line was catalogued (yes or no) for the presence of mutations in the following genes by consulting the OncoExpress™ database (Crown Biosciences Inc., Santa Clara, data accession date 18 May 2018˜30 May 2018). • MLH1 (part of the deficient mismatch repair—dMMR-mutations group) • MSH2 (part of the deficient mismatch repair—dMMR-mutations group) • PMS2 (part of the deficient mismatch repair—dMMR-mutations group) • PARP1 • BRCA1 (part of the BRCA1/BRCA2 mutations group) • BRCA2 (part of the BRCA1/BRCA2 mutations group) • TP53
The integrated data were then analyzed using Excel® software (Microsoft, Seattle). Briefly, the sorting algorithm of the Excel® software was used in grouping of the cell lines carrying certain mutations, and in further analysis of the IC50 distribution in each group.
The IC50 distributions among the cell line groups sharing certain genetic mutations were then analyzed for statistical significance.
Statistical analysis was performed using JMP 13 (SAS Institute Inc. Cary, N.C., USA) or Origin 9 (Origin Lab Corp., Northampton, Mass., USA). All data are represented as mean±standard error of the mean (SEM) and were tested for statistical significance using Mann-Whitney U test or analysis of variance (ANOVA). P-values of <0.05 were interpreted as statistically significant.

[1] = 96 h, top conc. 50 μg/mL Zn(II) agent, 100 μM cisplatin

## N.N.[Cl][Pt][Cl] [Cisplatin]
PC-3; 96 h, CellTiter-Glo
  Absolute IC50: 1.13 µg/mL
PC-3; [1]
  % inhibition at top conc.: 93.27%
PC-3; 96 h dose-response fit
  HillSlope: −1.55
HL-60; 96 h, CellTiter-Glo
  Absolute IC50: 0.29 µg/mL
HL-60; [1]
  % inhibition at top conc.: 99.99%
HL-60; 96 h dose-response fit
  HillSlope: −2.08
MV-4-11; 96 h, CellTiter-Glo
  Absolute IC50: 0.09 µg/mL
MV-4-11; [1]
  % inhibition at top conc.: 99.99%
MV-4-11; 96 h dose-response fit
  HillSlope: −2.06
MOLP8; 96 h, CellTiter-Glo
  Absolute IC50: 0.16 µg/mL
MOLP8; [1]
  % inhibition at top conc.: 99.98%
MOLP8; 96 h dose-response fit
  HillSlope: −2.16
SU-DHL-6; 96 h, CellTiter-Glo
  Absolute IC50: 0.38 µg/mL
SU-DHL-6; [1]
  % inhibition at top conc.: 99.99%
SU-DHL-6; 96 h dose-response fit
  HillSlope: −1.11
JJN-3; 96 h, CellTiter-Glo
  Absolute IC50: 0.28 µg/mL
JJN-3; [1]
  % inhibition at top conc.: 99.81%
JJN-3; 96 h dose-response fit
  HillSlope: −1.17
MOLM-13; 96 h, CellTiter-Glo
  Absolute IC50: 0.16 µg/mL
MOLM-13; [1]
  % inhibition at top conc.: 99.98%
MOLM-13; 96 h dose-response fit
  HillSlope: −2.08
Hep3B; 96 h, CellTiter-Glo
  Absolute IC50: 0.78 µg/mL
Hep3B; [1]
  % inhibition at top conc.: 99.58%
Hep3B; 96 h dose-response fit
  HillSlope: −1.50
50 cancer cell lines
  effect of CREBBPmt-KRASmt-BRCA1WT combination on sensitivity: strong resistance

Reference: US20210128609A1, “ONCOLOGY TREATMENTS USING ZINC AGENTS” (XYLONIX IP HOLDINGS PTE. LTD., priority 2018, published 2021)
